From patent US20080015189A1, “Antimicrobial photoinactivation using chalcogen analogs of benzo(A)phenoxazinium dyes” (The General Hospital Corporation, priority 2006, published 2008)

What was measured:
[1] = tested on: Enterococcus faecalis (ATCC 29212); test: Photodynamic inactivation of E. faecalis (survival fraction by CFU after red light); type: cell-based; details: 2 μM dye
Source text: (§1) The microorganisms studied were Escherichia coli (ATCC 25922), Enterococcus faecalis (ATCC 29212), and Candida albicans (ATCC 18804). The microorganism species chosen to evaluate the photoactivities of the dyes in the present study are important pathogens in the type of infections, such as wounds and burns, likely to be amenable to photodynamic therapy (PDT). E. faecalis is typical of Enterococci that frequently develop vancomycin resistance and are important nocosomial pathogens in post-surgical wounds and burns.^42 Although E. coli is generally thought of as an intestinal or urinary tract pathogen, there is increasing concern about its presence in wound infections and its ability to develop extended spectrum beta-lactamase resistance.^43,44 C. albicans is increasingly found in nocosomial infections in burns^45 and, to a lesser extent, in surgical wounds.^46
(§2) Cells were grown at 37° C. in aerobic conditions in a shaker at 150 rpm. Brain-heart infusion broth (Difco, BD Diagnostic Systems, Sparks, Md.) was used for E. coli and E. faecalis, YM medium (Difco) was used for C. albicans. Exponential cultures obtained by reculturing stationary overnight precultures were used for all experiments. E. coli and E. faecalis were grown in fresh medium for approximately 1 h to a density of 10^8 cells/mL; the OD values at 650 nm were 0.6. C. albicans was grown for approximately 4 h to approximate density of 10^7 cells/mL corresponding to an OD of 6 at 650 nm (ten fold dilution measured). Exact cell numbers were confirmed by counting colony forming units obtained after serial dilution on square BHI (or YM for Candida) agar plates.
(§3) Stock solutions (2 mM) of the three chalcogen dyes were prepared in water and stored at 4° C. in the dark for no longer than 1 month before use. A non-coherent light source with interchangeable fiber bundles (LumaCare, London, UK) was employed. Thirty-nm band pass filters allowed total powers of roughly 1 W to be obtained from 630+/−15 nm for EtNBA (1), 652+/−15 nm for EtNBS (2), and 660+/−15 nm for EtNBSe (3).
(§4) Suspensions of microorganisms were incubated for 10 minutes with photosensitizer in the dark at room temperature. Unbound photosensitizer was washed out by centrifugation of the mixture of dye and microorganisms for 6 minutes at 1550g, followed by resuspension of washed pellets in 10 mL PBS without Ca^++/Mg^++. Aliquots (200 μL) of these suspensions were used for photodynamic inactivation (PDI) experiments; the remaining suspensions were centrifuged again, and the pellets were dissolved in 3 mL 10% SDS for at least 24 hours. These suspensions were used for photosensitizer uptake measurement. The fluorescence of dissolved pellets was measured on a spectrofluorimeter (FluoroMax3, SPEX Industries, Edison, N.J.). For EtNBA (1), the excitation wavelength was 625 nm, and the emission spectra of the solution were recorded from 630 to 750 nm. For EtNBS (2), the excitation wavelength was 645 nm, and the range for emission was 650 to 750nm. For EtNBSe (3), the excitation wavelength was 655 nm, and the emission was recorded in the range from 660 to 750 nm. The fluorescence was calculated from the height of the peaks recorded. Calibration curves were made from pure photosensitizer dissolved in 10% SDS and used for determination of sensitizer concentration in the suspension. Uptake values were obtained by dividing the number of nmol of sensitizer in the dissolved pellet by the number of colony-forming units (CFU) obtained by serial dilutions and the number of photosensitizer molecules/cell calculated using Avogadro's number.
Illumination was performed either after or before excess dye was washed out. Aliquots of 200 μL of cell suspension were placed in 96-well plates and illuminated with appropriate light at room temperature. Fluences ranged from 0 to 80 Jcm^−2 at an irradiance of 60-100 mWcm^−2. Exact power was measured with a laser power meter (model FM/GS, Coherent, Santa Clara, Calif.).

[2] = tested on: Escherichia coli (ATCC 25922); test: Photodynamic inactivation of E. coli (survival fraction by CFU after red light); type: cell-based; details: 5 μM dye
Source text: as §1, §2, §3
as §4, with “For EtNBS (2), the excitation wavelength was 645 nm, and the range for emission was 650 to 750nm.” left out, “Calibration curves were made from pure photosensitizer dissolved in 10% SDS and used for determination of sensitizer concentration in the suspension.” left out
(§5) Illumination was performed either after or before excess dye was washed out. […] Exact power was measured with a laser power meter (model FM/GS, Coherent, Santa Clara, Calif.).

[3] = tested on: Candida albicans (ATCC 18804); test: Photodynamic inactivation of C. albicans (survival fraction by CFU after red light); type: cell-based; details: 20 μM dye, wash
Source text: as §1
Cells were grown at 37° C. in aerobic conditions in a shaker at 150 rpm. […] C. albicans was grown for approximately 4 h to approximate density of 10^7 cells/mL corresponding to an OD of 6 at 650 nm (ten fold dilution measured). […]
Suspensions of microorganisms were incubated for 10 minutes with photosensitizer in the dark at room temperature. […] The fluorescence of dissolved pellets was measured on a spectrofluorimeter (FluoroMax3, SPEX Industries, Edison, N.J.). For EtNBA (1), the excitation wavelength was 625 nm, and the emission spectra of the solution were recorded from 630 to 750 nm. […] For EtNBSe (3), the excitation wavelength was 655 nm, and the emission was recorded in the range from 660 to 750 nm. The fluorescence was calculated from the height of the peaks recorded. […] Uptake values were obtained by dividing the number of nmol of sensitizer in the dissolved pellet by the number of colony-forming units (CFU) obtained by serial dilutions and the number of photosensitizer molecules/cell calculated using Avogadro's number.
as §5

[4] = tested on: Enterococcus faecalis (ATCC 29212); test: Dye uptake and binding by microbial cells, E. faecalis (fluorescence of SDS-dissolved pellets); type: cell-based; details: 2 μM dye; for cell uptake (molecules per cell), rank order: 10 minute incubation, wash
Protocol: as §4
(§6) In order to do so, the uptake of dye was measured in terms of molecules per cell by carrying out 10 minute incubations with the same concentration of dyes that was used for photoinactivation, followed by a wash to remove residual incubating solution.
(§7) The bacterial pellets resulting from the incubation with photosensitizer were dissolved in 10% SDS to give a homogeneous solution, and comparison of the resulting fluorescence intensities with a calibration curve prepared with known concentrations of dye in the same solvent yielded the amount of dye in the pellet. […] For the fungus C. albicans, an even higher concentration of dye (20 μM) was used, because the eukaryotic cells are ten times bigger than the prokaryotic bacterial cells.

[5] = tested on: Escherichia coli (ATCC 25922); test: Dye uptake and binding by microbial cells, E. coli (fluorescence of SDS-dissolved pellets); type: cell-based; details: 5 μM dye; for cell uptake (molecules per cell), rank order: 10 minute incubation, wash
Protocol: as §4, §6, §7

[6] = tested on: Candida albicans (ATCC 18804); test: Dye uptake and binding by microbial cells, C. albicans (fluorescence of SDS-dissolved pellets); type: cell-based; details: 20 μM dye
Protocol: as §4, §6, §7

[7] = Quantum yield of singlet oxygen formation (1,3-diphenylisobenzofuran bleaching); type: physicochemical; details: 1,3-diphenylisobenzofuran method, relative to Methylene Blue, 25° C.
Source text: All solvents were reagent grade and used as received.
(§8) The relative photoactivities of the three photosensitizers studied herein were gauged by their abilities to generate singlet oxygen (^1O2) when illuminated with a beam of red light having an adjusted intensity such that each dye absorbed the same number of photons per unit time. […] Finally, because of the relevance of lipophilicity to the present studies, the partition coefficients for the PS between 2-octanol and phosphate-buffered saline (pH=7.4) are listed^18.

[8] = Partition coefficient between 2-octanol and pH 7.4 buffered saline; type: physicochemical; details: for LogP, partition coefficient: pH 7.4
Source text: as §8

[9] = in vivo; cited from earlier work
[10] = Absorption and fluorescence spectra, fluorescence quantum yield; details: for λfl(nm), fluorescence maximum: in ethanol; for λabs(nm), absorption maximum: in ethanol containing 0.1% acetic acid; for Φfl, absolute fluorescence quantum yield: relative to Cresyl Violet standard at 25° C.
Protocol: UV/visible absorption spectra were recorded using an HP 8453 spectrophotometer. Corrected fluorescence spectra were recorded using a SPEX Fluorolog2 (solvent measurements) or a FluoroMax3 (microorganism measurements), SPEX Industries, Edison, N.J. Fluorescence quantum yields were measured relative to Cresyl Violet standard at 25° C.^32 Quantum yields for ^1O2 formation were determined by measuring the ^1O2-mediated bleaching of 1,3-diphenylisobenzofuran^12 relative to Methylene Blue (0.50)^33 at 25° C. ^1H NMR spectra were obtained using a Varian 400 MHz spectrometer with TMS as internal standard.

[11] = reference standard value, 25° C.; cited from earlier work

Row | Compound | comparison of killing curves with and without a wash [1] | cell uptake (molecules per cell), rank order [4] | fraction of total dye added that was bound to the cells [5] | cell uptake (molecules per cell), rank order [5] | fraction of total dye added that was bound to the cells [6] | 1O2, absolute quantum yield for singlet oxygen formation [7] | LogP, partition coefficient [8] | toxicity in the dark [9] | λfl(nm), fluorescence maximum [10] [nm] | λabs(nm), absorption maximum [10] [nm] | Φfl, absolute fluorescence quantum yield [10] | also measured
1 | 5-ethylamino-9-diethylaminobenzo[a]phenothiazinium [Dye 2] | the two curves are almost identical | EtNBSe (3)>EtNBS (2)>EtNBA (1) | approximately 75% | EtNBSe (3)>EtNBS (2)>EtNBA (1) | essentially quantitative | 0.03 | 2.76 | little or no toxicity in the dark | 693 | 654 | 0.21 | killing of cells ([1]; wash, 64 J/cm^2 of 652-nm light): > 99.9%; killing of cells ([2]; wash, 64 J/cm^2): more than 99%; killing of cells ([3]; 64 J/cm^2): > 98%
2 | CCNc1cc2[o+]c3cc(N(CC)CC)ccc3nc2c2ccccc12 [Dye 1, 5-Ethylamino-9-diethylaminobenzo[a]phenoxazinium] |  | EtNBSe (3)>EtNBS (2)>EtNBA (1) |  | EtNBSe (3)>EtNBS (2)>EtNBA (1) | approximately 75% | 0.003 | 2.69 | little or no toxicity in the dark | 660 | 632 | 0.27 | killing of cells ([1]; wash, 80 J/cm^2 of 635-nm light): 95%; killing of cells ([2]; wash, 80 J/cm^2): 90%; killing of cells ([3]; 80 J/cm^2): > 97%; cell uptake (molecules per cell), comparison with EtNBSe (3) ([6]; 10 minute incubation, wash): significantly lower
3 | CCN=c1cc2[se]c3cc(N(CC)CC)ccc3nc-2c2ccccc12 [Dye 3, 5-Ethylamino-9-diethylaminobenzo[a]phenoselenazinium chloride] | no significant difference in the two killing curves | EtNBSe (3)>EtNBS (2)>EtNBA (1) | essentially quantitative | EtNBSe (3)>EtNBS (2)>EtNBA (1) | essentially quantitative | 0.78 |  |  | 703 | 661 | 0.03 | killing of cells ([1]; wash, 8 J/cm^2 of 660-nm light): > 99.999%; killing of cells (logs) ([1]; wash, 8 J/cm^2 of 660-nm light): 5.5 logs; comparison of killing curves with and without a wash [2]: bacteria washed free of incubating solution were actually killed slightly (but not significantly) more than those of the non-wash group; killing of cells ([2]; wash, 32 J/cm^2): > 99.9999%; killing of cells (logs) ([2]; wash, 32 J/cm^2): > 6 logs; killing of cells ([3]; 4 J/cm^2): more than 99%; fraction of total dye added that was bound to the cells [4]: approximately 75%; logP ([8]; between 2-octanol and pH 7.4 buffered saline): 2.08
4 | CN(C)c1ccc2nc3ccc(=[N+](C)C)cc-3sc2c1 [Methylene Blue] |  |  |  |  |  |  |  |  |  |  |  | quantum yield for 1O2 formation of the standard [11]: 0.50
